Data reported in paper PMC5402262, “Synthesis and anti-obesity effects in vivo of Crotadihydrofuran C as a novel PPARγ antagonist from Crotalaria albida” (Scientific Reports, 2017).

Target: T1, PPARγ (Homo sapiens, UniProt P37231)
T1 construct: gene PPARG
T1 sequence (P37231 231-505 limits assumed): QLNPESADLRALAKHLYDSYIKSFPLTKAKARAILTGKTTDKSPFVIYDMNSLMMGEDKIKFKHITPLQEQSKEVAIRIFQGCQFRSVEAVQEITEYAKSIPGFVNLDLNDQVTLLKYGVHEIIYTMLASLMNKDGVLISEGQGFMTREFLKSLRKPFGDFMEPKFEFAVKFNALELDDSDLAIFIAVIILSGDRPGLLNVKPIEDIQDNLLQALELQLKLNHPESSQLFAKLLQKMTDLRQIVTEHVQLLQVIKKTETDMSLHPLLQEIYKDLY
Experiment: LanthaScreen TR-FRET competitive binding assay

C=C(C)[C@@H]1Cc2c(ccc(-c3coc4cc(O)ccc4c3=O)c2O)O1 [compound 17, 7, 2′-Dihydroxy-2′′ S-isopropenyl dihydrofuran [6′′, 7′′ : 3′, 4′]-isoflavone]
Ki: 1.57 µM
